# Measurements: the supplement of paper PMC9265050, “Inhibition of RNA Binding in SND1 Increases the Levels of miR-1-3p and Sensitizes Cancer Cells to Navitoclax” (Cancers, 2022)
# Tested on: SW480
# Test: drug sensitivity score (DSS, integrated dose-response area); higher = more sensitive (stronger viability reduction); extreme values may be limits of the assay
# Method in brief: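 The drug sensitivity score is the integrated area under a fitted non-linear dose–response model. It was derived from SW480 cells with doxycycline-inducible control or SND1-targeting shRNA, induced with 0.1 µg/mL doxycycline for 7 days and plated at 1000 cells per well on 384-well plates of 525 commercially available small-molecule inhibitors at five concentrations. CellTiter-Glo measured viability after 72 h.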
# [1] = shRNA: SND1 shRNA1 (SND1 silenced)
# [2] = shRNA: SND1 shRNA2 (SND1 silenced)
# [3] = shRNA: control shRNA (non-targeting)
Compound,drug sensitivity score [1],drug sensitivity score [2],drug sensitivity score [3]
O=C(/C=C\n1cnc(-c2cc(C(F)(F)F)cc(C(F)(F)F)c2)n1)NNc1ccccn1 [Verdinexor],8 DSS,4.5 DSS,8.6 DSS
Cn1cc(CNCC2CCN(c3ncc(C(=O)NO)cn3)CC2)c2ccccc21 [Quisinostat],14.9 DSS,14.6 DSS,13.6 DSS
CC(C)NC[C@@H](C(=O)N1CCN(c2ncnc3c2[C@H](C)C[C@H]3O)CC1)c1ccc(Cl)cc1 [Ipatasertib],3.5 DSS,9.7 DSS,5.9 DSS
Cc1nc(-c2cn3c(n2)-c2ccc(-c4cnn(C(C)(C)C(N)=O)c4)cc2OCC3)n(C(C)C)n1 [Taselisib],0 DSS,0.7 DSS,0 DSS
CCn1c(-c2nonc2N)nc2c(C#CC(C)(C)O)ncc(OC[C@H]3CCCNC3)c21,0.9 DSS,,2 DSS
CCN(CC)CCNC(=O)c1c(C)[nH]c(/C=C2\C(=O)Nc3ccc(F)cc32)c1C [Sunitinib],0.3 DSS,0.1 DSS,0.7 DSS
CCC/C=C/C=C/C(=O)O[C@H]1/C(=C/C(=O)OC)C[C@H]2C[C@H]([C@@H](C)O)OC(=O)C[C@H](O)C[C@@H]3C[C@H](OC(C)=O)C(C)(C)[C@](O)(C[C@@H]4C/C(=C/C(=O)OC)C[C@H](/C=C/C(C)(C)[C@]1(O)O2)O4)O3 [Bryostatin 1],1.7 DSS,0.6 DSS,0 DSS
NCC(=O)Nc1ccc(-n2nc(C(F)(F)F)cc2-c2ccc3c(ccc4ccccc43)c2)cc1,10 DSS,5.3 DSS,7.5 DSS
CNc1nc(-c2ccc3c(N)n[nH]c3c2)cc(N2C[C@@H](C(=O)NC3CCCCC3)CC[C@H]2C)n1,4.7 DSS,4.2 DSS,3.8 DSS
COc1ccc(COc2cc3oc(=O)c4cc(C(C)O)ccc4c3cc2OC)cc1 (centres undefined) [Palomid-529],0 DSS,0 DSS,1.7 DSS
Cc1cccc(-c2nn3c(c2-c2ccnc4ccc(C(N)=O)cc24)CCC3)n1 [Galunisertib],0 DSS,0 DSS,0 DSS
Clc1ccc(C(c2ccccc2Cl)C(Cl)Cl)cc1 (centres undefined) [Mitotane],0 DSS,0 DSS,0 DSS
COc1cc(N2CCN(C)CC2)ccc1Nc1nccc(-c2cn(C)c3cnccc23)n1 [AZ191],6.8 DSS,,7.9 DSS
C[C@@H]1CN(Cc2ccc(F)cc2)[C@@H](C)CN1C(=O)c1cc2c(C(=O)C(=O)N(C)C)cn(C)c2cc1Cl [Talmapimod],0 DSS,,0 DSS
CCCCC/C=C/C=C1/C(=O)C=C[C@@H]1C/C=C\CCCC(=O)O [15D-PGJ2],1.7 DSS,0 DSS,0 DSS
Cc1cc2c(C(=O)NC[C@H](C)c3ccccc3)c(O)c(O)cc2c(O)c1-c1c(C)cc2c(C(=O)NC[C@H](C)c3ccccc3)c(O)c(O)cc2c1O [Sabutoclax],14.2 DSS,13.3 DSS,12.7 DSS
CCS(=O)(=O)N1CCN(c2ccc(Nc3ncc(C(N)=O)c(NC4CC4)n3)cc2)CC1 [Cerdulatinib],7.8 DSS,6.6 DSS,9.3 DSS
Cc1cc(Nc2ncc(Cl)c(Nc3ccccc3S(=O)(=O)C(C)C)n2)c(OC(C)C)cc1C1CCNCC1 [Ceritinib],2.1 DSS,0.8 DSS,0.2 DSS
CNC(=O)c1ccccc1Nc1nc(Nc2ccc3c(c2OC)CCC[C@H](N2CCN(CCO)CC2)C3)ncc1Cl,3.9 DSS,3.5 DSS,5.5 DSS
